Experimental data reported in patent US20250255876A1, “COMPOSITIONS AND METHODS FOR CANCER TREATMENT” (ARIEL SCIENTIFIC INNOVATIONS LTD., priority 2021, published 2025).

Columns and labels:
Assay type in all cases: cell-based
U2OS cells = assay: Colony survival assay, U2OS cells; conditions: varying cisplatin, 48 hours
Experimental: (§1) H1975 cells were plated in 24-well plates at 50,000 cells/well (for 50 µM inhibitor treatment) or 20,000 cells/well (for […] inhibitor treatment). U2OS and A549 cells were plated in 24-well plates at 5000 cells/well. The next day, cells were treated with varying concentrations of cisplatin, either with or without added inhibitor compound. After 48 hours of cisplatin+compound treatment, the cells were washed 3 times with PBS×1 and fresh media applied. After 4 days of recovery, the cells were stained with methylene blue and imaged using a Nikon SMZ25 stereomicroscope. The images were analyzed using the ImageJ (National Institutes of Health) area measurement tool to quantify total colony size in each well.

H1975 cells = assay: Colony survival assay, H1975 cells; conditions: H1975, 5 μM cisplatin
Experimental: as §1
(§2) Cells were plated in 24-well plates at 50,000 cells/well (H1975 line) or 10,000 cells/well (A549 line). The next day, cells were treated with varying concentrations of cisplatin ([…]), with or without 50 μM compound. For the untreated control wells containing only cisplatin, DMSO was applied in place of the compound. After 48 hours of cisplatin+compound treatment, the cells were washed 3 times with PBS and fresh media was applied. After 4 days of recovery, the cells were stained with methylene blue and imaged using a Nikon SMZ25 stereomicroscope. The images were analyzed using the ImageJ (National Institutes of Health) area measurement tool to quantify total colony size in each well.
(§3) In order to assess the ability of the selected compounds to sensitize cells during cisplatin treatment, the inventors established a colony survival assay comparing the viability of cells treated with cisplatin alone or with combined treatment of cisplatin and 50 μM compound. For the compound screen, we used two lung cancer cell lines: human non-small lung carcinoma H1975 cells, and epithelial lung adenocarcinoma A549 cells. Out of ten compounds tested, compounds c #2 and c #3 were identified with the most significant sensitization effect and were chosen for future characterization. […] Survival rate was reduced from 90% in 5 μM cisplatin treatment to 50% survival in the combined treatment (FIGS. 11A-B). H1975 cells presented similar behavior following doxorubicin treatment (FIG. 11C). IC50 was calculated using linear regression, presenting a clear reduction of cisplatin's IC50 in all treatments.

A549 cells = assay: Colony survival assay, A549 cells; conditions: A549, 5 μM cisplatin
Experimental: as §1, §2, §3

SMILES | cell survival with cisplatin plus inhibitor (U2OS cells) | survival rate, cisplatin alone (H1975 cells) [%] | survival rate, cisplatin alone (A549 cells) [%]
CCCC(=O)Nc1cccc(C(=O)Nc2nnc(COC)s2)c1 [Compound 9] | no activity | – | –
N.N.[Cl][Pt][Cl] [cisplatin, cis-diamminedichloroplatinum(II), reference compound] | – | 90 | 90
